Key:
Format in all cases: cell-based
[1] = tested on: mitochondria in COS-7 cells; experiment: Mitochondrial membrane de-polarisation experiments (CCCP) in COS-7 cells; conditions: for mitochondrial signal after CCCP Chase (depolarization after staining) / mitochondrial accumulation after depolarizing the membrane potential with CCCP before staining: 100 nM dye 30 minutes; for mitochondrial signal after CCCP Chase (depolarization after staining): then 20 μM CCCP 30 minutes; for mitochondrial accumulation after depolarizing the membrane potential with CCCP before staining: 20 μM CCCP pre-treatment 30 minutes
Description: COS-7 cells were pre-treated with media or 20 μM CCCP for 30 minutes followed by a staining step with 100 nM COMPOUND 5 or 100 nM Comparator (MitoTracker Deep Red FM) for 30 minutes in the presence/absence of 20 μM CCCP. After the staining, excessive dye was washed out with media, with or without 20 μM CCCP for 30 minutes.

[2] = tested on: mitochondria in COS-7 cells; experiment: Staining of COS-7 cells at varying concentrations followed by PFA fixation, spinning disk confocal imaging; conditions: for toxicity at 200 nM: 30 minutes; for mitochondrial staining at low concentrations: then 4% PFA fixation; for effect of high concentration on mitochondria (fragmentation and peri-nuclear clustering suggesting toxic effects): above 200 nM
Description: Both COMPOUND 5 and the Comparator show some toxicity at 200 nM. COMPOUND 5 gives nice staining at 25-100 nM.
In FIG. 4 (scale bar=10 μm), images are shown after COS-7 cells were stained for 30 minutes with indicated concentrations followed by immediate fixation with 4% PFA for 20 minutes at 37° C. Images were acquired using a spinning disk confocal microscope with identical exposure time and laser power and were processed with identical settings to allow a direct comparison.

[3] = tested on: mitochondria in HeLa cells; experiment: Co-localization with TOM20 antibody in fixed HeLa cells (probe added before fixation)
From the text: In each experiment, an antibody for the mitochondrial marker TOM20 has also been added. Co-localization of TOM20 and mitochondrial probes is directly compared in the merged data.

[4] = tested on: mitochondria in HeLa cells; experiment: Co-staining of COMPOUND 5 with DRP1 antibody NBP2-23489 on fixed, permeabilized HeLa cells; conditions: 200 nM, 15 minutes, room temperature
Description: NBP2-23489 was incubated on fixed, permeabilized HeLa cells at 8 μg/mL for 2 hours at room temperature. Cells were then incubated with an NL557 secondary antibody (R&D Systems; Catalog #NL007) for 1 hour at room temperature protected from light. Lastly, cells were incubated with COMPOUND 5 at 200 nM for 15 minutes at room temperature protected from light. Cells were cover-slipped with a DAPI-containing mounting media and imaged. Antibody staining was pseudo-coloured green, and mitochondrial marker staining was pseudo-coloured red.

[5] = tested on: mitochondria in HeLa cells; experiment: Staining of HeLa cells at a single concentration followed by fixation; conditions: 100 nM probe 40 minutes, then 4% PFA 10 minutes
Description: In FIG. 5 (scale bar=10 μm), images are shown after HeLa cells were stained with 100 nM probe for 40 minutes, followed by fixation with 4% PFA for 10 minutes. Laser power and gain have been optimized for each individual probe in this figure.

[6] = tested on: mitochondria in HeLa cells; experiment: Post-fixation staining of HeLa cells, intensity profiles compared with a Comparator added before fixation; conditions: HeLa cells fixed with 4% PFA 20 min; COMPOUND 5 75 nM added after fixation
Description: COMPOUND 5 and the Comparator have distinct absorption and emission maxima. Intensity profiles (lower panel) taken across a set frame are shown for both COMPOUND 5 and Comparator.
Live HeLa cells were stained with a Comparator (250 nM, 45 min) and were then fixed (4% PFA, 20 min). After fixation, COMPOUND 5 (75 nM) was added and the cells were imaged. COMPOUND 5 and Comparator have distinct absorption and emission profiles and spill over between channels was not observed. Intensity profiles for both mitochondrial stains were taken across a set frame (lower panel) and compared.

| SMILES | mitochondrial signal after CCCP Chase (depolarization after staining) [1] | mitochondrial accumulation after depolarizing the membrane potential with CCCP before staining [1] | toxicity at 200 nM ([2]; COS-7 cells) | mitochondrial staining at low concentrations ([2]; COS-7 cells, 25-100 nM, 30 min) | effect of high concentration on mitochondria (fragmentation and peri-nuclear clustering suggesting toxic effects) ([2]; COS-7 cells) | staining of non-mitochondrial structures (ER, nuclear envelope) at high concentrations ([2]; COS-7 cells) | co-localization with mitochondrial marker TOM20 after fixation [3] | mitochondrial localization (overlap with antibody staining) [4] | speed of mitochondrial staining relative to Comparator ([1]; inferred from CCCP chase) | toxicity at low concentrations ([2]; COS-7 cells, 25-100 nM, 30 min) | brightness compared to the Comparator ([2]; fixed COS-7 cells, particularly at 25 nM and 50 nM) | staining of mitochondria following fixation compared to a Comparator [5] | staining profile when added after fixation, compared with Comparator added before fixation [6] |
| --- | --- | --- | --- | --- | --- | --- | --- | --- | --- | --- | --- | --- | --- |
| C[N+]1=C(/C=C/C=C/C=C2\N(Cc3ccc(CCl)cc3)c3ccccc3C2(C)C)C(C)(C)c2ccccc21.[Cl-] [Comparator, MitoTracker Deep Red FM, reference compound] | reversible | reduces the mitochondrial accumulation | some toxicity | decreased at low concentration | mitochondrial alterations | stained additionally other cellular structures | – | – | – | – | – | – | – |
| ClCc1ccccc1-c1c2ccc(=[N+]3CCC3)cc-2oc2cc(N3CCC3)ccc12 [COMPOUND 8, 1-(6-(azetidin-1-yl)-9-(2-(chloromethyl)phenyl)-3H-xanthen-3-ylidene)azetidin-1-ium chloride] | – | – | – | – | – | – | co-localize with the mitochondrial marker TOM20 | – | – | – | – | – | – |
| COC1CN(c2ccc3c(-c4ccccc4CCl)c4ccc(=[N+]5CC(OC)C5)cc-4oc3c2)C1 (centres unmarked) [COMPOUND 9, 1-(9-(2-(chloromethyl)phenyl)-6-(3-methoxyazetidin-1-yl)-3H-xanthen-3-ylidene)-3-methoxyazetidin-1-ium chloride] | – | – | – | – | – | – | co-localize with the mitochondrial marker TOM20 | – | – | – | – | – | – |
| C[Si]1(C)C2=CC(=[N+]3CCC3)C=CC2=C(c2ccccc2CCl)c2ccc(N3CCC3)cc21 [COMPOUND 5, 1-(7-(azetidin-1-yl)-10-(2-(chloromethyl)phenyl)-5,5-dimethyldibenzo[b,e]silin-3(5H)-ylidene)azetidin-1-ium chloride] | strong mitochondrial signal | reduces the mitochondrial accumulation | some toxicity | good mitochondrial signal with little background | mitochondrial alterations | stained additionally other cellular structures | – | localizes specifically to the mitochondria | more rapidly than the Comparator | no obvious toxicity | significantly improved brightness | retains clearer staining of mitochondria | very high similarity in staining profile |

— US20240377291A1, “AZETIDINE SUBSTITUTED ROSAMINES USEFUL FOR STAINING MITOCHONDRIA” (TOCRIS COOKSON LIMITED, priority 2021, published 2024)
